Literature values, collected in patent US20240408173A1, “SILK FIBROIN-CONTAINING COMPOSITION AND METHODS OF USE THEREOF” (Georgetown University, priority 2017, published 2024).

For FC(F)(F)C(F)(F)C(F)(F)C(F)(F)C(F)(F)C(F)(F)C(F)(F)C(F)(F)Br [PFC, perfluorooctylbromide], the Water solubility is listed as “No”.
